In PubChem BioAssay (NCI) one finds GI50 and TGI data, which are given here for nine compounds.

Experiment in all cases: inhibition of tumour cell growth, NCI panel, 48 h
Experiment [1] concerns RPMI-8226 leukemia.
In experiment [2] the test system is A498 renal.
The test system of experiment [3] is OVCAR-5 ovarian.
The subject of experiment [4] is MOLT-4 leukemia.
For experiment [5], the system named is M14 melanoma.
For experiment [6], the system named is 786-0 renal.
Experiment [7] concerns SF-295 CNS.
The subject of experiment [8] is HOP-62 NSCLC.
Experiment [9] concerns SK-OV-3 ovarian.
For experiment [10], the system named is MALME-3M melanoma.

Several values for one entry are separate records, joined by “and”; a condition that tells them apart may be missing. Equal values may be shown once.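 The compound was tested at five concentrations on cells cultured in 96-well plates, with a 48-hour exposure period. GI50 is the concentration that inhibits growth by half. The concentration for full growth arrest is given as TGI.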

As to `CCCCN(CC)CCCCCCCCCCN1CCCc2cc(OC)ccc21`, the GI50 in experiment [1] is 2.15 µM; in [2], 2.36 µM; in experiment [3], 6.37 µM; in [4] it was 3.09 µM; in experiment [5] it was 2.11 µM; in experiment [6], 2.03 µM. Further, the GI50 is 1.8 µM in experiment [7], 2.69 µM in experiment [8], 5.19 µM in experiment [9] and 2.33 µM in experiment [10]. In addition, the TGI in [1] was determined as 4.79 µM; in experiment [2] it was 9.54 µM; in experiment [3], 24.1 µM; in experiment [4], 10.5 µM; in experiment [5], 4.99 µM; in experiment [6], 3.94 µM. Besides, the TGI came to 3.72 µM in [7], 10.2 µM in experiment [8], 21 µM in [9] and 4.98 µM in experiment [10].
For the compound `CN(CSc1ccc(Cl)cc1)c1ccc(CSc2ccc(Cl)cc2)cc1`, the GI50 was 2.11 µM in experiment [1]; 1.59 µM in experiment [2]; 13.5 µM in [3]; 2.66 µM in [4]; 4.09 µM in [5]; 1.8 µM in [6]. The GI50 in [7] was 2.86 µM; in [8] it was 13.6 µM; in [9], 7.9 µM; in [10] it was 12 µM. Also, the TGI in experiment [1] was over 100 µM; in [2], 9.61 µM; in [3], 34.5 µM; in experiment [4], over 100 µM; in [5], 14.9 µM; in experiment [6], 11 µM. Also, the TGI in experiment [7] turned out to be 13.7 µM; in [8] it was 29.9 µM; in experiment [9] it was 23.4 µM; in experiment [10], 33.1 µM.
As for `CCN1C(=O)N(CC)C2C1NC(=S)N2/N=C/C=C/c1ccccc1OC` (stereo not given), the GI50 in experiment [1] is 0.0431 µM; in experiment [2] it was 0.0295 µM; in experiment [3], 0.0715 µM; in experiment [4] it was 0.0427 µM; in experiment [5], under 0.0184 µM; in experiment [6], under 0.0212 µM. The GI50 in experiment [7] was 0.0306 µM; in experiment [8] it was 0.0463 µM; in experiment [9], 0.0368 µM; in experiment [10] it was 0.0599 µM. The TGI in [1] was 30.9 µM; in experiment [2] it was 0.0888 µM; in [3], over 100 µM; in [4] it was over 100 µM; in experiment [5], over 100 µM; in experiment [6] it was over 100 µM. Besides, the TGI in experiment [7], in experiment [8], in [9] and in [10] was over 100 µM in each case.
As to `O=C(O)c1ccc(C(=O)O)c(C(=O)O)c1.[NH-]C1CCCCC1[NH-].[Pt+2]`, the GI50 was 0.581 µM in experiment [1]; 6.28 µM in [2]; 6.32 µM in experiment [3]; 0.5 µM and 4.84 µM in experiment [4]; 9.61 µM in experiment [5]; 1.99 µM in experiment [6]. Besides, the GI50 in experiment [7] is 5.52 µM; in experiment [8], 11.7 µM; in [9], 40.9 µM; in experiment [10], 1.67 µM. Moreover, the TGI in experiment [1] is 48.9 µM; in [2] it was 45.1 µM; in experiment [3] it was 35.5 µM; in [4] it was 20 µM; in experiment [5] it was 37.4 µM; in experiment [6] it was over 74.7 µM. The TGI in experiment [7] is 68.6 µM; in experiment [8], over 74.4 µM; in experiment [9], over 97.3 µM; in [10], 22.8 µM.
With `O=C(Nc1ccc(I)cc1)c1cccc([N+](=O)[O-])c1O`, the GI50 in experiment [1] was 1.66 µM; in [2], 1.65 µM; in [3] it was 18.1 µM; in [4] it was 3.38 µM; in experiment [5] it was 3.54 µM; in [6] it was 3.53 µM. Also, the GI50 was 2.39 µM in [7], 6.93 µM in experiment [8], 3.05 µM in experiment [9] and 2.47 µM in [10]. Besides, the TGI in [1] was 6.73 µM; in [2], 6.55 µM; in experiment [3] it was over 100 µM; in experiment [4], 92.3 µM; in experiment [5], 49.5 µM; in experiment [6] it was 24.2 µM. Moreover, the TGI in experiment [7] was 11.3 µM; in experiment [8], over 100 µM; in experiment [9] it was 44.9 µM; in experiment [10], 9.12 µM.
Take `C/C(=N/NC(=S)N1CC2CCC(CC2)C1)c1cnccn1`: the TGI in experiment [1] is 4.95 µM; in experiment [2], 14.2 µM; in experiment [3], 24.6 µM; in experiment [4], 1.32 µM; in [5] it was 1.85 µM; in experiment [6] it was 5.65 µM. Moreover, the TGI was determined as 12.1 µM in experiment [7], 14.9 µM in experiment [8], 11.9 µM in experiment [9] and 10.3 µM in experiment [10].
Turning to `NC1=NC2=C(CCCC2)C(c2cccs2)S1` (stereo not given), the TGI in experiment [1], in experiment [2], in experiment [3], in [4], in experiment [5] and in [6] was over 100 µM each time. Also, the TGI in experiment [7], in [8], in [9] and in experiment [10] was over 100 µM throughout.
As for `Cc1ccc(NC(=O)/C(=N\NC(N)=S)C(C#N)c2ccccc2C)cc1C` (stereo not given), the TGI in [1], in experiment [2], in [3], in [4], in experiment [5] and in experiment [6] was over 100 µM throughout. The TGI in experiment [7], in experiment [8], in [9] and in experiment [10] was over 100 µM in each case.
As for `COc1ccc(C2CC(c3ccc4ccccc4c3)=NN2c2nc(O)c(C3=c4cc(OC)ccc4=NC3=O)s2)cc1` (stereo not given), the GI50 in [1] was 0.27 µM; in [2], 0.124 µM; in experiment [3], 0.115 µM; in experiment [4], 0.11 µM; in experiment [5], 0.072 µM; in [6], 0.028 µM. For the same compound, the GI50 was 0.0608 µM in experiment [7], 0.0633 µM in [8], 0.13 µM in experiment [9] and 0.0243 µM in [10]. Moreover, the TGI worked out at 3.93 µM in [1]; 0.3 µM in experiment [2]; 1.35 µM in experiment [3]; 0.91 µM in [4]; 0.726 µM in experiment [5]; 0.0869 µM in [6]. Further, the TGI in [7] amounted to 0.165 µM; in experiment [8], 0.158 µM; in [9] it was 0.431 µM; in experiment [10], 0.0655 µM.
